Experimental data reported in patent publication US4975434A, “Antiviral and anticancer cyclopentenyl cytosine” (priority 1989, dated 1990).
≈ marks a conversion by molar mass, not a printed value. Where “and” joins values, the source holds several entries; their conditions need not be identical. Identical values can stand only once. Entries after “also recorded” stand apart in the source; their conditions may differ.

Legend:
[1] = test system: vaccinia virus (IHD strain); assay type: in vivo, mouse (CD-I)
[2] = test system: Herpes simplex type 1 (TK+), strain E-377; test: Cytopathogenic inhibition test, HSV-1 TK+; assay type: cell-based
[3] = test system: Vesicular Stomatitis virus, strain Indiana; assay type: cell-based
[4] = test system: Janapese Encephalitis virus, strain Najayama; test: Antiviral test in vitro, Japanese encephalitis virus; assay type: cell-based, Japanese encephalitis virus; host Vero cells
Rhinovirus 1A = test: Antiviral activity against rhinovirus 1A; assay type: cell-based; conditions: result in words
Rift Valley Fever virus = conditions: USAMRIID, Fort Detrick
c-myc mRNA = c-myc mRNA levels in HL-60 cells; assay type: cell-based, human
CTP pools = test: Nucleotide (CTP, UTP, ATP, GTP) levels in treated cells (HL-60); assay type: cell-based, human
CTP synthesase = test: Inhibition of CTP synthesis (CTP synthesase); assay type: biochemical; conditions: result in words
CTP levels = CTP levels in normal and tumor tissue of L1210 bearing mice; assay type: in vivo, mouse; conditions: normal vs tumor tissue of L1210 bearing mice
tumors = test: Antitumor activity (general statement); conditions: general statement
M5076 sarcoma = test: In vivo antitumor test, M5076 sarcoma in mice
[5] = test system: P388/ara-C (Arabinosyl cytosine resistant P388 leukemia); test: In vivo antitumor test, ara-C resistant P388 leukemia in mice; conditions: for activity against ara-C resistant P388: result in words
A549 Lung = test: Human tumor xenograft in athymic mice, A549 lung (subrenal capsule)
[6] = Table II Experiment 1, tumor IP, IP QD1-13, OD 0.5 mg/kg/injection
[7] = Table II Experiment 1, tumor IP, IP QD1-9, OD 1.5 mg/kg/injection
[8] = Table II Experiment 2, tumor IP, IP QD1-9, OD 1.5 mg/kg/injection

Nc1ccn([C@@H]2C=C(CO)[C@@H](O)[C@H]2O)c(=O)n1 [CPE-C]
activity in vivo, mouse tail pox model ([1]; 1.5 mg/kg): good protection; also recorded: Excellent activity
Pox Count (mean value, 20 mice) ([1]; CPE-C 1.5 mg/kg, QD 1-7 subcutaneous, PBS control 45.8): 0.8
IC50 ([2]; Human alphaherpesvirus 1, Vero cells, strain E-377, inhibition of virus-induced cytopathogenic effects, read-out: ID50 (the source's name)): 0.3 µg/mL (≈ 1.25 µM)
VR (virus rating) ([2]; Vero cells, strain E-377): 3.8
antiviral activity ([2]; result in words): greater than arabinosyl adenine (ara-A); also recorded: Potent activity
VR (virus rating) ([3]; L929 cells, strain Indiana, two determinations): 2.4 and 3.0
TI (therapeutic index) ([3]; minimum toxic drug concentration / ID50, L929 cells): 0.6 and 0.4
antiviral activity ([3]; result in words): Good activity; also recorded: Virus ratings greater than two
IC50 ([4]; Japanese encephalitis virus, Vero, read-out: ID50): 0.1 µg/mL (≈ 0.418 µM)
VR (virus rating) ([4]; Vero cells, strain Najayama): 2.4
TI (therapeutic index) ([4]; minimum toxic drug concentration / ID50, Vero cells): 3.1
antiviral activity ([4]; result in words): Good activity; also recorded: greater potency and higher therapeutic index than Ribavarin
antiviral activity (Rhinovirus 1A): Activity was not seen
antiviral activity (Rift Valley Fever virus): particularly active
inhibition of c-myc mRNA levels (c-myc mRNA): more pronounced than the reduction in total cellular RNA synthesis; also recorded: reduction of c-myc RNA levels
CTP levels following drug removal (CTP pools; HL-60): sustained reduction in CTP levels
level of CTP (CTP pools; during CPE-C treatment): rapid and pronounced inhibition
half-life for the disappearance of CTP (CTP pools; during CPE-C treatment, HL-60): 1.5 to 2 h
level of UTP, ATP or GTP (CTP pools; during CPE-C treatment, HL-60): not of UTP, ATP or GTP
level of CTP pools (CTP pools; treated cells): near total abrogation of CTP pools
inhibition of CTP synthesis (CTP synthesase): powerful inhibitors of CTP synthesis
tissue specificity of CTP reduction (CTP levels): some tissuespecificity towards the tumor
activity against ara-C resistant tumors and human tumors grown in mice (tumors): particularly potent and active agents
% ILS (M5076 sarcoma; [6]): 5%
LCK (M5076 sarcoma; [6]): -2.0 log
activity (M5076 sarcoma; result in words): inactive
% ILS [5, 7]: 165%
LCK [5, 7]: > 6.5 log
Number of 30 day survivors out of six mice [5, 7]: 3
% ILS [5, 8]: 133%
LCK [5, 8]: 3.8 log
activity against ara-C resistant P388 [5]: collaterally sensitive
activity against ara-C resistant P388 ([5]; listed as cyclopentenyl cytosine): significant antitumor activity
growth inhibition (A549 Lung): 100%
Toxicity: weight loss and deaths (A549 Lung; A549 experiments 1 and 2, 1.5 and 2.0 mg/kg/injection, each group of six mice): weight loss and one or two deaths
% Tumor Inhibition (negative value denotes tumor regression) (A549 Lung; Table III Experiment 1, SRC, IP QD1-9, OD 1.5 mg/kg/injection, day 0 to 11): -59%
% Tumor Inhibition (A549 Lung; Table III Experiment 2, SRC, IP QD1-9, OD 2.0 mg/kg/injection, day 0 to 11): 92%
